Here are results for 15 molecules from PubChem BioAssay AID328 (DTP/NCI, 2004).

Where “and” joins values, the source holds several entries; their conditions need not be identical. Equal entries are not always repeated. Toxic doses and inconclusive results are not listed.

The test system of this experiment is BDF1 mice, P388 leukemia ip, median survival T/C. Briefly: NCI In Vivo Anticancer Drug Screen. Data for tumor model P388 Leukemia (intraperitoneal) in B6D2F1 (BDF1) mice. The following applies: endpoint: median survival time, higher = longer survival. Put shortly:
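Survival ratio, drug arm over vehicle arm, in mice with a transplanted tumour.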

The mark [1] stands for this setting: dose: 6.25 mg/kg/injection, schedule: Q01DX009 (ip), vehicle: water.
The mark [2] stands for this setting: dose: 12.5 mg/kg/injection, schedule: Q01DX009 (ip), vehicle: water.
Where [3] appears, read: dose: 50.0 mg/kg/injection, schedule: Q04DX003 (ip), vehicle: water.
[4] abbreviates: dose: 100.0 mg/kg/injection, schedule: Q04DX003 (ip), vehicle: water.
Where [5] appears, read: dose: 200.0 mg/kg/injection, schedule: Q04DX003 (ip), vehicle: water.
Where [6] appears, read: dose: 400.0 mg/kg/injection, schedule: Q04DX003 (ip), vehicle: water.
Where [7] appears, read: dose: 100.0 mg/kg/injection, schedule: Q01DX009 (ip), vehicle: Klucel (hydroxypropylcellulose) (HPC).
Setting [8] is: dose: 100.0 mg/kg/injection, schedule: Q04DX003 (ip), vehicle: Klucel (hydroxypropylcellulose) (HPC).

As to `CCOc1ccc(Br)cc1/C=N\N=C\c1cc(Br)ccc1OCC`, the T/C reads like this: (dose: 6.0 mg/kg/injection, schedule: Q01DX001 (ip), vehicle: Klucel (hydroxypropylcellulose) (HPC)) 87 % of control; (dose: 12.0 mg/kg/injection, schedule: Q01DX001 (ip), vehicle: Klucel (hydroxypropylcellulose) (HPC)) 95 % of control; (dose: 25.0 mg/kg/injection, schedule: Q01DX001 (ip), vehicle: Klucel (hydroxypropylcellulose) (HPC)) 86 % of control.
With `CC(=O)C[n+]1ccccc1C(c1ccccc1)c1ccccc1`, the T/C by setting is: (dose: 12.5 mg/kg/injection, schedule: Q01DX005 (ip), vehicle: saline) 101 % of control; (dose: 25.0 mg/kg/injection, schedule: Q01DX005 (ip), vehicle: saline) 92 % of control; (dose: 50.0 mg/kg/injection, schedule: Q01DX005 (ip), vehicle: saline) 101 % of control.
For `CCCNC1=C(C)C(=O)C2=C(C1=O)[C@H](COC(N)=O)[C@]1(OC)[C@@H]3N[C@@H]3CN21`, the T/C is, setting by setting: (dose: 2.0 mg/kg/injection, schedule: Q01DX009 (ip), vehicle: saline sonified) 205 % of control; (dose: 2.0 mg/kg/injection, schedule: Q01DX009 (ip), vehicle: saline) 180 % of control; (dose: 3.0 mg/kg/injection, schedule: Q01DX009 (ip), vehicle: saline) 200 % of control; (dose: 3.13 mg/kg/injection, schedule: Q01DX009 (ip), vehicle: saline sonified) 150 % of control.
On to `C#CCSc1ncnc2nc[nH]c12`, for which the T/C runs as follows: (dose: 100.0 mg/kg/injection, schedule: Q04DX003 (ip), vehicle: saline) 100 % of control; (dose: 200.0 mg/kg/injection, schedule: Q04DX003 (ip), vehicle: saline) 100 % of control.
Consider `Cn1cnnc1N`, for which the T/C (dose: 100.0 mg/kg/injection, schedule: Q01DX001 (ip), vehicle: saline) was 100 % of control; the T/C (dose: 200.0 mg/kg/injection, schedule: Q01DX001 (ip), vehicle: saline) was 95 % of control; the T/C (dose: 400.0 mg/kg/injection, schedule: Q01DX001 (ip), vehicle: saline) was 104 % of control.
Consider `C=C(C)C(=O)Oc1ccc([N+](=O)[O-])cc1`, for which the T/C is 96 % of control (dose: 50.0 mg/kg/injection, schedule: Q01DX009 (ip), vehicle: saline with Tween-80); 113 % of control (dose: 100.0 mg/kg/injection, schedule: Q01DX009 (ip), vehicle: saline with Tween-80); 98 % of control (dose: 200.0 mg/kg/injection, schedule: Q01DX009 (ip), vehicle: saline with Tween-80).
With `CC(=O)O[C@H]1[C@H]2O[C@]23[C@@H]2CC[C@@H]4C[C@@H](O)CC[C@]4(C)[C@H]2CC[C@]3(C)[C@H]1c1ccc(=O)oc1`, the T/C is, setting by setting: (dose: 3.75 mg/kg/injection, schedule: Q01DX009 (ip), vehicle: Klucel (hydroxypropylcellulose) (HPC)) 100 % of control; (dose: 7.5 mg/kg/injection, schedule: Q01DX009 (ip), vehicle: Klucel (hydroxypropylcellulose) (HPC)) 104 % of control; (dose: 10.0 mg/kg/injection, schedule: Q01DX010 (ip), vehicle: carboxymethylcellulose (CMC)) 90 % of control; (dose: 20.0 mg/kg/injection, schedule: Q01DX010 (ip), vehicle: carboxymethylcellulose (CMC)) 90 % of control.
For `COc1ccc(C(CC(C)=O)c2c(O)c3ccccc3oc2=O)cc1OC` (centres undefined), the T/C by setting is: (dose: 3.12 mg/kg/injection, schedule: Q04DX003 (ip), vehicle: water) 98 % of control; under setting [1], 100 % of control; (dose: 6.25 mg/kg/injection, schedule: Q04DX003 (ip), vehicle: water) 101 % of control; under setting [2], 100 % of control; (dose: 12.5 mg/kg/injection, schedule: Q04DX003 (ip), vehicle: water) 100 % of control; (dose: 25.0 mg/kg/injection, schedule: Q04DX003 (ip), vehicle: water) 105 % of control. Further, the T/C under setting [3] was 100 % of control; the T/C under setting [4] was 100 % of control and 102 % of control; the T/C under setting [5] was 101 % of control; the T/C under setting [6] was 90 % of control.
In the case of `COc1c2c(c3c(c1OC)c(=O)c1ccccc1n3C)OCO2`, the T/C by setting is: (dose: 45.0 mg/kg/injection, schedule: Q01DX010 (ip), vehicle: carboxymethylcellulose (CMC)) 90 % of control; (dose: 90.0 mg/kg/injection, schedule: Q01DX010 (ip), vehicle: carboxymethylcellulose (CMC)) 104 % of control; (dose: 180.0 mg/kg/injection, schedule: Q01DX010 (ip), vehicle: carboxymethylcellulose (CMC)) 95 % of control.
`CCOC(=O)C(N=C=S)C(C)CC` (centres undefined): the T/C (dose: 100.0 mg/kg/injection, schedule: Q01DX001 (ip), vehicle: saline with Tween-80) was 115 % of control; the T/C (dose: 200.0 mg/kg/injection, schedule: Q01DX001 (ip), vehicle: saline with Tween-80) is 107 % of control; the T/C (dose: 400.0 mg/kg/injection, schedule: Q01DX001 (ip), vehicle: saline with Tween-80) is 118 % of control.
Consider `CCCCN(CCCC)CCCNC(=O)OCC`, for which the T/C was 100 % of control (dose: 25.0 mg/kg/injection, schedule: Q01DX009 (ip), vehicle: Klucel (hydroxypropylcellulose) (HPC)); 100 % of control (dose: 25.0 mg/kg/injection, schedule: Q04DX003 (ip), vehicle: Klucel (hydroxypropylcellulose) (HPC)); 110 % of control (dose: 50.0 mg/kg/injection, schedule: Q01DX009 (ip), vehicle: Klucel (hydroxypropylcellulose) (HPC)); 104 % of control (dose: 50.0 mg/kg/injection, schedule: Q04DX003 (ip), vehicle: Klucel (hydroxypropylcellulose) (HPC)); 115 % of control under setting [7]; 109 % of control under setting [8].
As to `Oc1c(O)c(Cl)c(Cl)c(Cl)c1Cl`, the T/C (dose: 12.5 mg/kg/injection, schedule: Q01DX009 (ip), vehicle: saline sonified) is 95 % of control; the T/C (dose: 12.5 mg/kg/injection, schedule: Q04DX003 (ip), vehicle: saline sonified) was 100 % of control; the T/C (dose: 25.0 mg/kg/injection, schedule: Q01DX009 (ip), vehicle: saline sonified) is 108 % of control; the T/C (dose: 25.0 mg/kg/injection, schedule: Q04DX003 (ip), vehicle: saline sonified) was 100 % of control; the T/C (dose: 50.0 mg/kg/injection, schedule: Q01DX009 (ip), vehicle: saline sonified) was 116 % of control; the T/C (dose: 50.0 mg/kg/injection, schedule: Q04DX003 (ip), vehicle: saline sonified) was 100 % of control.
For the molecule `COc1cc(/C=C/C(=O)c2ccc3c(c2)OCO3)ccc1OCc1ccccc1`, the T/C reads like this: under setting [1], 100 % of control; under setting [2], 100 % of control; (dose: 25.0 mg/kg/injection, schedule: Q01DX009 (ip), vehicle: water) 106 % of control and 108 % of control; (dose: 50.0 mg/kg/injection, schedule: Q01DX009 (ip), vehicle: water) 95 % of control and 110 % of control; under setting [3], 86 % of control; (dose: 100.0 mg/kg/injection, schedule: Q01DX009 (ip), vehicle: water) 95 % of control. The T/C is 100 % of control under setting [4]; 97 % of control and 110 % of control (dose: 200.0 mg/kg/injection, schedule: Q01DX009 (ip), vehicle: water); 87 % of control under setting [5]; 89 % of control under setting [6].
On to `Cc1c2oc3c(C)c(N)cc(C(=O)NC4C(=O)NC(C(C)C)C(=O)N5CCCC5C(=O)N(C)CC(=O)N(C)C(C(C)C)C(=O)OC4C)c3nc-2c(C(=O)NC2C(=O)NC(C(C)C)C(=O)N3CCCC3C(=O)N(C)CC(=O)N(C)C(C(C)C)C(=O)OC2C)c(N)c1=O` (centres undefined), for which the T/C is 153 % of control (dose: 75.0 micrograms/kg/injection, schedule: Q01DX009 (ip), vehicle: saline + alcohol); 151 % of control (dose: 225.0 micrograms/kg/injection, schedule: Q04DX003 (ip), vehicle: saline + alcohol); 90 % of control (dose: 450.0 micrograms/kg/injection, schedule: Q04DX003 (ip), vehicle: saline + alcohol).
Regarding `O=C(OCC#CC#CCOC(=O)c1ccccc1)c1ccccc1`, the T/C is 104 % of control under setting [7]; 100 % of control under setting [8]; 113 % of control (dose: 200.0 mg/kg/injection, schedule: Q01DX009 (ip), vehicle: Klucel (hydroxypropylcellulose) (HPC)); 90 % of control (dose: 200.0 mg/kg/injection, schedule: Q04DX003 (ip), vehicle: Klucel (hydroxypropylcellulose) (HPC)); 104 % of control (dose: 400.0 mg/kg/injection, schedule: Q01DX009 (ip), vehicle: Klucel (hydroxypropylcellulose) (HPC)); 109 % of control (dose: 400.0 mg/kg/injection, schedule: Q04DX003 (ip), vehicle: Klucel (hydroxypropylcellulose) (HPC)).
